Measured values published in patent US20080064682A1, “Pyrazole Derivatives” (DAIICHI PHARMACEUTICAL CO., LTD., priority 2004, published 2008).
Where two headings read alike, the source gives them in different places.

What was measured:
[1] = tested on: collagen-induced platelet aggregation; settings: background art, cited from earlier work
[2] = tested on: collagen-induced platelet aggregation; experiment: Platelet aggregation-inhibitory action (collagen-induced aggregation in platelet rich plasma); type: cell-based; settings: human PRP, 37° C., read-out: Inhibition of collagen-induced platelet aggregation, IC50
Experimental: The blood was centrifuged at 180×g for 10 minutes to separate platelet rich plasma (PRP) from the blood. Upper layer PRP was removed, and the lower layer was centrifuged at 1600×g for 10 minutes, to thereby recover the upper layer platelet poor plasma (PPP). A solution (1 μL) of compound of the present invention was added to PRP (200 μL), and the mixture was allowed to stand at 37° C. for 2 minutes. Subsequently, collagen (2 μL) was added to the resultant mixture so as to induce platelet aggregation. Percent platelet aggregation was measured using PAM-12C (SSR Engineering). Optical transmittance of PPP was regarded as an indicator of 100% aggregation. Percent platelet aggregation values of the respective compounds were determined at different concentrations. IC50 values were calculated.

Cyclooxygenase-1 (COX-1) = target: T1, Cyclooxygenase-1 (COX-1) (Ovis aries, UniProt P05979); experiment: COX Inhibitor Screening Assay Kit, COX-1 (PGF2α by ELISA); type: biochemical; settings: 50 μM compound; read-out: Inhibitory effect against COX-1 at 50 μM (% inhibition)
T1 construct: purchased Cayman Chemical Company 560101 and 560121
T1 sequence (P05979 25-600): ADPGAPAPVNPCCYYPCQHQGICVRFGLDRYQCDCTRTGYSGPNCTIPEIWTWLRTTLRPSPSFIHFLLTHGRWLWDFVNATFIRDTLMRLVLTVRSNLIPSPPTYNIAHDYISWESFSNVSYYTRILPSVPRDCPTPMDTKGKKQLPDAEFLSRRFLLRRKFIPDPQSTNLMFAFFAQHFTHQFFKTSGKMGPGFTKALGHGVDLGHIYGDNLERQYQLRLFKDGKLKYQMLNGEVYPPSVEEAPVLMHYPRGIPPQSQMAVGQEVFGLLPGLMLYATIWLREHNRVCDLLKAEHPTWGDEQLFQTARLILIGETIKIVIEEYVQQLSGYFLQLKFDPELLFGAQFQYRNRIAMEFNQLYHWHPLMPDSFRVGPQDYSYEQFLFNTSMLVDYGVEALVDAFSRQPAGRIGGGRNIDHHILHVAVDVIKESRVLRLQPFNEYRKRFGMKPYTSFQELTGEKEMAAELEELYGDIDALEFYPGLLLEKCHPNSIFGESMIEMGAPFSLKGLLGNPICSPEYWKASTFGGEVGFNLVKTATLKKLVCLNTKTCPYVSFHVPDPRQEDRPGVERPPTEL
Experimental: (§1) COX-1 inhibiting activity and COX-2 inhibiting activity of inventive compounds produced in some of the Examples herein were measured by use of a COX Inhibitor Screening Assay Kit (product of Cayman Chemical Company, Catalog Nos. 560101 and 560121).
(§2) Before starting the measurement, a reaction buffer, heme, arachidonic acid, SnCl2, EIA buffer, washing buffer, prostaglandin (PG) screening EIA standard, PG screening acetylcholine esterase (AchE), tracer ([…]), and PG screening EIA antiserum were prepared ready for use.
(§3) Production of PGF in the Presence of COX-1 or COX-2
A reaction mixture containing a compound of the present invention from the Examples (50 μM) and COX-1 or COX-2 was allowed to stand at 37° C. for 10 minutes. Arachidonic acid (10 μL) was added thereto, and the resultant mixture was further allowed to stand at 37° C. for 2 minutes. 1N-Hydrochloric acid (50 μL) was added to the reaction mixture, to thereby stop the reaction. SnCl2 solution (100 μL) was added thereto, and the resultant mixture was allowed to stand at room temperature for 5 minutes.
(§4) (2) Quantitative Determination of PGF2α Using ELISA
Antiserum (rabbit anti-PGF2α antibody, 50 μL) was added to the wells of a 96-well plate that had been coated with mouse anti-rabbit IgG. A solution of PGF2α-containing mixture obtained above (2000-fold dilution, 50 μL) and an AchE tracer (50 μL) were sequentially added to each well, and the mixture was allowed to stand at room temperature for 18 hours. The wells were washed 5 times with the washing buffer to remove an excessive AchE tracer, and an Ellman reagent (200 μL) was added. After keeping the plate in a dark room for 60 minutes, absorbance was measured at 405 nm.
(3) Calculation of Inhibitory Activity of the Compounds of the Present Invention
(§5) A calibration curve was obtained by use of a PG screening EIA standard, and the production amount of PGF2α was determined from the absorbance Percent inhibition against COX-1 or COX-2 in the presence of a 50 μM of the compound was calculated.

Cyclooxygenase-2 (COX-2) = target: T2, Cyclooxygenase-2 (COX-2) (Homo sapiens, UniProt P35354); experiment: COX Inhibitor Screening Assay Kit, COX-2 (PGF2α by ELISA); type: biochemical; settings: 50 μM compound; read-out: Inhibitory effect against COX-2 at 50 μM (% inhibition)
T2 construct: purchased Cayman Chemical Company 560101 and 560121
T2 sequence (P35354 18-604): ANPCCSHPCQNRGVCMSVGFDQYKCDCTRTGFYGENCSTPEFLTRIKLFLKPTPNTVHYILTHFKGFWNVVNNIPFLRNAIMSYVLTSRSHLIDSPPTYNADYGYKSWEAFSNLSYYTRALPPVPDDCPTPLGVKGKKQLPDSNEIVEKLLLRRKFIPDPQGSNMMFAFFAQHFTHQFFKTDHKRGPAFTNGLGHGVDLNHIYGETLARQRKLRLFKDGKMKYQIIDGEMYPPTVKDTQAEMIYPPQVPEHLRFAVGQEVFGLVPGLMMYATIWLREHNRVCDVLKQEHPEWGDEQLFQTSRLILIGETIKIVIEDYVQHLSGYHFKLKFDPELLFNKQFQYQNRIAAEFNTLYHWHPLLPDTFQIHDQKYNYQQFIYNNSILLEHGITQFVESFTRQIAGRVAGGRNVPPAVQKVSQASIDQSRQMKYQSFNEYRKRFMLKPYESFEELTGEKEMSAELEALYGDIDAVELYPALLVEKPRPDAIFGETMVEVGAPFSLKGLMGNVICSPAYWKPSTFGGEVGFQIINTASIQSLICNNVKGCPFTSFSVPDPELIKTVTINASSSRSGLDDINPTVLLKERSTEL
Experimental: as §1, §2, §3
A reaction mixture containing a compound of the present invention from the Examples (50 μM) and COX-1 or COX-2 was allowed to stand at 37° C. for 10 minutes. Arachidonic acid (10 μL) was added thereto, and the resultant mixture was further allowed to stand at 37° C. for 2 minutes. […]
as §4
Antiserum (rabbit anti-PGF2α antibody, 50 μL) was added to the wells of a 96-well plate that had been coated with mouse anti-rabbit IgG. […] After keeping the plate in a dark room for 60 minutes, absorbance was measured at 405 nm. […]
as §5

Structure (SMILES)	IC50 ([1]; read-out: IC50 value against collagen-induced platelet aggregation) [nM]	IC50 [2] [nM]	inhibition at 50 µM (Cyclooxygenase-1 (COX-1)) [%]	inhibition at 50 µM (Cyclooxygenase-2 (COX-2)) [%]	platelet aggregation inhibitory activity compared with inhibitory activity against COX-2 [1]
CS(=O)(=O)c1ccc(-c2cc(C#N)nn2-c2ccc(F)cc2)cc1 [Compound (A)]	5300				
NC(=O)c1ccc(-c2cc(C(=O)N3CCC(F)(F)CC3)nn2-c2cccnc2)nc1 [Example 13, 1-[5-(5-Carbamoyl-2-pyridyl)-1-(3-pyridyl)-1H-pyrazole-3-carbonyl]-4,4-difluoropiperidine]		130	10.3		
Cc1ccc(-c2cc(C(=O)N3CCC(F)(F)CC3)nn2-c2cccnc2)nc1 [Example 15, 1-[5-(5-Methyl-2-pyridyl)-1-(3-pyridyl)-1H-pyrazole-3-carbonyl]-4,4-difluoropiperidine]		9	8.1		
O=C(c1cc(-c2ccc(Cl)cn2)n(-c2cccnc2)n1)N1CCC(F)CC1 [Example 29, 1-[5-(5-Chloro-2-pyridyl)-1-(3-pyridyl)-1H-pyrazole-3-carbonyl]-4-fluoropiperidine]		95	-1.4	5.3	
COC1CCN(C(=O)c2cc(-c3ccc(C)cn3)n(-c3cccnc3)n2)CC1 [Example 30, 1-[5-(5-Methyl-2-pyridyl)-1-(3-pyridyl)-1H-pyrazole-3-carbonyl]-4-methoxypiperidine]		120	-21.1		
Cc1ccc(-c2cc(C(=O)N3CCC(F)CC3)nn2-c2cccnc2)nc1 [Example 33]		31.3	-16.7		
Cc1ccc(-c2cc(C(=O)N3CCCCN3)nn2-c2cccnc2)nc1 [Example 57, 1-[5-(5-Methylpyridin-2-yl)-1-(pyridin-3-yl)-1H-pyrazole-3-carbonyl]hexahydropyridazine]		140	-17.4		
O=C(c1cc(-c2ccc(CO)cn2)n(-c2cccnc2)n1)N1CCC(F)(F)CC1 [Example 65, 1-[5-(5-Hydroxymethylpyridin-2-yl)-1-(pyridin-3-yl)-1H-pyrazole-3-carbonyl]-4,4-difluoropiperidine]		130	5.9		
Cc1ccc(-c2cc(C(=O)N3CCN(C)CC3)nn2-c2cccnc2)nc1 [Example 67, 1-[5-(5-Methylpyridin-2-yl)-1-(pyridin-3-yl)-1H-pyrazole-3-carbonyl]-4-methylpiperazine]		190	-21		
Cn1cnc(-c2cc(C(=O)N3CCC(F)(F)CC3)nn2-c2cccnc2)c1 [Example 70, 1-[5-(1-Methyl-1H-imidazol-4-yl)-1-(pyridin-3-yl)-1H-pyrazole-3-carbonyl]-4,4-difluoropiperidine]		280	5.5		
Cc1ccc(-c2cc(C(=O)N3CCN(C)C(=O)C3)nn2-c2cccnc2)nc1 [Example 71, 1-[5-(5-Methylpyridin-2-yl)-1-(pyridin-3-yl)-1H-pyrazole-3-carbonyl]-4-methyl-3-oxopiperazine]		270	18.1		
C=C1CCN(C(=O)c2cc(-c3cn(C)cn3)n(-c3cccnc3)n2)CC1 [Example 73, 1-[5-(1-Methyl-1H-imidazol-4-yl)-1-(pyridin-3-yl)-1H-pyrazole-3-carbonyl]-4-methylenepiperidine]		78	11.9		
COc1ccc(-c2cc(C(F)F)nn2-c2ccc(S(N)(=O)=O)cc2)cc1F [compound (B)]					not so potent
